# Laboratory results as given in patent US5882881A, “Inhibition of cyst formation by cytoskeletal specific drugs” (priority 1998, dated 1999).
# What was measured:
# [1] = system: normal phenotype, heterozygous mice; assay: Body weight of normal phenotype heterozygous C57BL/6 mice (FIG. 3A); assay type: in vivo, mouse; conditions: versus methotrexate or non-treated
# Description: […]. The body weights of untreated, taxol treated and methotrexate treated C57BL/6j mice between day 10 and day 45 after birth is shown in A. The body weights of untreated, taxol treated and methotrexate treated cpk mice are shown in B. Results in each group are the mean of 6 animals. Untreated and methotrexate treated cpk mice died between days 26 and 28. […].
# In a related procedure I treated both normal C57BL/6 and cpk mice at 11-14 days of age with either taxol or methotrexate as described above. Six untreated mice served as controls in this experiment.
# homozygous cpk mice = assay: Survival of cpk mice on weekly intraperitoneal treatment (Example 8, FIG. 2); assay type: in vivo, mouse
# Description: Untreated and methotrexate (MTX) treated polycystic cpk mice all died before 30 days of age. Most polycystic cpk mice treated with weekly taxol survive more than 60 days. The dotted line starting at day 120 indicates the number and age of apparently healthy taxol treated polycystic mice that were sacrificed for histology studies. Pairs of mice were sacrificed at 120 days, 182 days and 210 days of age.
# In order to determine whether taxol prevents cyst formation by inhibiting cell division, another drug known to have anti-mitotic activity, methotrexate, was tested for its ability to treat homozygous cpk mice. Six cpk mice were injected intraperitoneally with 15 μl of methotrexate solution (1.1 mg/ml in water) 10-12 days after birth and once every week thereafter. The methotrexate-injected mice survived until between 18 and 27 days after birth, with only one mouse living longer than 28 days. […] Therefore, the anti-mitotic activity of taxol cannot explain its ability to treat CPK mice having a polycystic-type kidney disease. Rather, the results from in vitro tests indicate that agents which interfere with the function of the cytoskeleton, or which inhibit the delivery of membrane proteins are useful in treating cystic diseases such as Polycystic Kidney Disease.
# Eleven homozygous cpk mice, raised and identified as in Example 6 were treated with 15 μl of 10 mg/ml taxol in DMSO through intraperitoneal injection beginning 11-14 days after birth. Following the first treatment, the mice were administered with the same treatment once every week thereafter. As controls, 6 cpk mice were treated with 15 μl intraperitoneal injections of DMSO beginning 10-12 days after birth and then once every week thereafter.
# [2] = humans; approximately; cited from earlier work
# Murine CPK Cells [3] = assay: In vitro cyst formation and cyst size in suspension culture of murine CPK cells; assay type: cell-based, mouse; conditions: day 21, 24 h, final concentration per Table II (cytosine arabinoside 20 μg/ml, α-amanitin 100 ng/ml, cycloheximide 49 μg/ml, ouabain 1 mM, amiloride 1 mM, brefeldin-A 10 μg/ml, griseofulvin 350 μM, colchicine 10 μM, vinblastine 1 μM, nocodazole 30 μM, taxol 25 μM, cytochalasins 10 μM)
# Murine CPK Cells [4] = assay: as above; assay type: cell-based, mouse
# Description: At 10, 21 and 28 days after birth, mice having congenital polycystic kidney disease (CPK) and their phenotypically normal littermates were sacrificed by cervical dislocation. Kidneys were harvested aseptically and washed with DMEM/F12 (Sigma Chemical Co., St. Louis, Mo.) in a 1:1 mix. Each decapsulated kidney was chopped into cubes (1 mm) and incubated in 5 ml of collagenase solution composed of 1 mg/ml collagenase type IV (Worthington Biochemical Corporation, Freehold, N.J.), 1 mg/ml egg white trypsin inhibitor (Worthington) in 1:1 DMEM/F12.
# The top 12 mls, which contained both single cells and aggregates of up to 10 cells, as assessed by inverted phase-ontrast microscopy, were placed in 2 ml aliquots in the wells of plastic culture plates (Corning, N.Y.) precoated with 1% agarose in DMEM:F12 (2 ml in each well of a 6-well plate; 1 ml in each well of a 24-well plate). Cell samples were digested with further incubation for 10 minutes in 0.05% trypsin and 0.53 mM EDTA (Gibco, BRL Gaithesburg, Md.) at 37° C. All cultures were plated at a final density of 1-3×10^4 cell, per well. For growth studies of monolayer cells, identical preparations were grown on the plastic surface of the culture plates. Both the monolayers and the cell suspensions were incubated at 37° C. in a moisture saturated incubator in 5% CO2 and air.
# I used the in vitro cyst formation system of the present invention to analyze compounds that affect the process of cyst formation. To determine the therapeutic effectiveness of an agent, cyst-forming cells are suspended in a medium to which the agent has been added. These cells are then cultured on a solid phase without formation of a layer of cells on the surface, such as in the assay system described in Example 1. The extent to which the cells actually form cysts can be detected and compared to the extent of cyst formation expected if no agent were added. If the amount of cyst formation is lower than expected, then the agent is a good candidate for therapeutic intervention of cystic diseases.
# The effects of various metabolic inhibitors on cyst formation were studied in cultures derived from day 21 postnatal CPK mice. […] Taxol (25 μM), a microtubule specific inhibitor, was from Calbiochem (La Jolla, Calif.). All other chemicals were obtained from Sigma Chemical Co. Cytosine arabinoside was added at the final concentration of 20 μg/ml to inhibit DNA synthesis; α-amanitin at 100 ng/ml to inhibit RNA synthesis; cycloheximide at 40 μg/ml to inhibit protein synthesis; amiloride at 1 mM to inhibit the renal epithelial Na^+ -H^+ exchange; ouabain at 0.5 mM to inhibit Na^+ -K^+ -ATPase; brefeldin-A at 10 μg/ml to inhibit transport of surface proteins; griseofulvin at 350 μM to inhibit microtubule function; colchicine at 10 μM to inhibit microtubule polymerization; and cytochalasin-B and cytochalasin-D at 10 μM to depolymerize actin filaments.
# In the presence of these metabolic inhibitors in vitro, cyst formation was noted to be either present or absent; if present, the diameters of 20 cysts from a 0.2 ml aliquot were measured. In the same samples, ^3 H-dThd incorporation was also measured as described above. […] After each wash, cell clusters were collected by centrifuging at 200×g for 1 minute and the supernatant discarded. Washed cell clusters were resuspended in the original volume of growth medium without inhibitors, placed in agarose coated wells and incubated at 37° C. in a moisture saturated incubator in 5% CO2 and air.
# In this table, the mean cyst size is reported as ±SD with a measurement of twenty cysts. The ^3 H-dThd incorporation is reported as ±SD using measurements of three wells. The * indicates […] versus control. […] The entries listed as "NA" in the table indicate data that is not available.
smiles,measurement,setting,value
CC(=O)O[C@H]1C(=O)[C@@]2(C)[C@H]([C@H](OC(=O)c3ccccc3)[C@]3(O)C[C@H](OC(=O)[C@H](O)[C@@H](NC(=O)c4ccccc4)c4ccccc4)C(C)=C1C3(C)C)[C@]1(OC(C)=O)CO[C@@H]1C[C@@H]2O [Taxol],weight gain (in words),[1],gained less weight
same,survival (in words),"homozygous cpk mice; weekly i.p., versus untreated or DMSO",generally experienced substantially longer life spans
same,condition of treated polycystic mice (in words),"homozygous cpk mice; weekly taxol, pairs sacrificed at 120, 182 and 210 days of age","remained active until sacrifice and attained adult size and weight, despite having palpably enlarged kidneys"
same,in vivo half-life,[2],6 to 12 h
same,Cyst Formation (+/-),Murine CPK Cells [3],-
same,Cyst Size,"Murine CPK Cells [4]; mean ± SD of twenty cysts, concentrations as in Table II, control 71 ± 22",0 μm
same,cyst formation (in words),"Murine CPK Cells [4]; murine CPK cells, 24 h suspension culture, ouabain 0.5 mM, also 1 mM, b155 taxol 25 μM, colchicine 10 μM, vinblastine 1 μM, cytochalasins 10 μM, model species not given",reversibly inhibited in vitro cyst formation in both models
